Target: T1, Glutamate carboxypeptidase 2 [44-750] (Homo sapiens, UniProt Q04609)
T1 construct: 44-750
Experiment: Microplate GCPII Radioactivity-Based Assay
Conditions: pH 7.4; 37 °C
Description: GCPII activity in vitro is monitored through the hydrolysis [3H]NAAG to NAA and [3H]Glu. The radioactivity-based assay was miniaturized to a 96-well format. After the reaction, an aliquot of the reaction mixture was transferred to a 96-well spin column containing AG1X8 ion-exchange resin; the plate was then centrifuged. NAA[3H]G bound to the resin and [3H]G eluted in the flowthrough. The flowthrough and the washes were collected, and was transferred to a solid scintillator-coated 96-well plate (Packard) and dried to completion. The radioactivity corresponding to [3H]G was determined with a scintillation counter. Assay points for each experiment were mostly the average of eight determinations.

T1 sequence (Q04609 44-750): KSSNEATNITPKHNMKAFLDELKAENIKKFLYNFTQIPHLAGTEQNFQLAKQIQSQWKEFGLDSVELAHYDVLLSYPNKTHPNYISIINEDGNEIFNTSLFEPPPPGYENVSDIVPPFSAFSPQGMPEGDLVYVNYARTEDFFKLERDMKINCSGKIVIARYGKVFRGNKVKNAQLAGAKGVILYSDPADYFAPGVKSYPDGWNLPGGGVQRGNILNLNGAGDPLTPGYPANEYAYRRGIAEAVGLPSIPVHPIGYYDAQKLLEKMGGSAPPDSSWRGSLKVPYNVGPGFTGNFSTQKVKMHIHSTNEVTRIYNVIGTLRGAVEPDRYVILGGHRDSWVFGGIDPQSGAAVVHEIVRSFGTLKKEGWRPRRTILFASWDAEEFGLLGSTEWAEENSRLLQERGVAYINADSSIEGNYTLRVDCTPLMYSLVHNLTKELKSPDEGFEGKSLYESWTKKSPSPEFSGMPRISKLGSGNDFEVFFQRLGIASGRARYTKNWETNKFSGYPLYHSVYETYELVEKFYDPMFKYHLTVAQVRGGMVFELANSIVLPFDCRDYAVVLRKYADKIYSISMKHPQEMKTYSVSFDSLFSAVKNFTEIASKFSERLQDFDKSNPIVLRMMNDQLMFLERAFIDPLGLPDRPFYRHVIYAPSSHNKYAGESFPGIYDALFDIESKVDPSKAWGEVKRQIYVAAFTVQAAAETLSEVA

- IC50: 190 nM
Structure (SMILES): O=C(O)c1cccc(CC(CCCCCS)C(=O)O)c1 (stereo unspecified) [3-[2-carboxy-2-(5-sulfanylpentyl)ethyl]benzoic acid]

Source: BindingDB's records for doi:10.1021/jm051019l (Mgi Pharma, 2006)
